According to PMC4450297, “Screening Active Compounds from Garcinia Species Native to China Reveals Novel Compounds Targeting the STAT/JAK Signaling Pathway” (BioMed Research International, 2015):

Assays:
Assay in all cases: Cell panel screen (CellTiter-Glo)
Type in all cases: cell-based, human
Bel-7402 = Bel-7402 (Liver), 20 micromolar, 72 hrs
How it was run: (§1)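 Steps: seed cells, culture overnight at 37°C; add compound diluted in medium from DMSO stock to 20 μM final; incubate 72 h; add detection reagent for 10 min; read luminescence; compute % inhibition versus vehicle controls.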

Colo 205 = conditions: Colo 205, 20 micromolar, 72 hrs
How it was run: as §1

T98G = T98G (Brain), 20 micromolar, 72 hrs
How it was run: as §1

HGC-27 = HGC-27 (Stomach), 20 micromolar, 72 hrs
How it was run: as §1

HCC1395 = HCC1395 (Breast), 20 micromolar, 72 hrs
How it was run: as §1

Panc 03.27 = Panc 03.27 (Pancreas), 20 micromolar, 72 hrs
How it was run: as §1

HT-1197 = HT-1197 (Urinary bladder), 20 micromolar, 72 hrs
How it was run: as §1

TCCSUP = TCCSUP (Urinary bladder), 20 micromolar, 72 hrs
How it was run: as §1

HCC1937 = HCC1937 (Breast), 20 micromolar, 72 hrs
How it was run: as §1

RL95 = RL95 (Uterus), 20 micromolar, 72 hrs
How it was run: as §1

A704 = A704 (Kidney), 20 micromolar, 72 hrs
How it was run: as §1

NCI-H1770 = NCI-H1770 (Lung), 20 micromolar, 72 hrs
How it was run: as §1

BT-474 = BT-474 (Breast), 20 micromolar, 72 hrs
How it was run: as §1

J82 = J82 (Urinary bladder), 20 micromolar, 72 hrs
How it was run: as §1

NCI-H28 = NCI-H28 (Lung), 20 micromolar, 72 hrs
How it was run: as §1

BT-549 = BT-549 (Breast), 20 micromolar, 72 hrs
How it was run: as §1

HCC1569 = HCC1569 (Breast), 20 micromolar, 72 hrs
How it was run: as §1

ChaGo-K-1 = ChaGo-K-1 (Lung), 20 micromolar, 72 hrs
How it was run: as §1

HCC1599 = HCC1599 (Breast), 20 micromolar, 72 hrs
How it was run: as §1

NCI-H2347 = NCI-H2347 (Lung), 20 micromolar, 72 hrs
How it was run: as §1

T47D = T47D (Breast), 20 micromolar, 72 hrs
How it was run: as §1

NCI-H2405 = NCI-H2405 (Lung), 20 micromolar, 72 hrs
How it was run: as §1

SW13 = SW13 (Adrenal gland), 20 micromolar, 72 hrs
How it was run: as §1

NCI-H524 = NCI-H524 (Lung), 20 micromolar, 72 hrs
How it was run: as §1

MSTO-211-H = MSTO-211-H (Lung), 20 micromolar, 72 hrs
How it was run: as §1

HPAF-II = HPAF-II (Pancreas), 20 micromolar, 72 hrs
How it was run: as §1

A498 = A498 (listed under Lung), 20 micromolar, 72 hrs
How it was run: as §1

CW-2 = CW-2 (Colon), 20 micromolar, 72 hrs
How it was run: as §1

CCF-STTG1 = CCF-STTG1 (Brain), 20 micromolar, 72 hrs
How it was run: as §1

C3A = C3A (Liver), 20 micromolar, 72 hrs
How it was run: as §1

C8166 = C8166 (Leukemia), 20 micromolar, 72 hrs
How it was run: as §1

NCI-H1623 = NCI-H1623 (Lung), 20 micromolar, 72 hrs
How it was run: as §1

M059J = M059J (Brain), 20 micromolar, 72 hrs
How it was run: as §1

ZR-75-30 = ZR-75-30 (Breast), 20 micromolar, 72 hrs
How it was run: as §1

HEC-1-A = HEC-1-A (Uterus), 20 micromolar, 72 hrs
How it was run: as §1

NCI-H1694 = NCI-H1694 (Lung), 20 micromolar, 72 hrs
How it was run: as §1

Compound	Percent Inhibition (Bel-7402)	Percent Inhibition (Colo 205)	Percent Inhibition (T98G)	Percent Inhibition (HGC-27)	Percent Inhibition (HCC1395)	Percent Inhibition (Panc 03.27)	Percent Inhibition (HT-1197)	Percent Inhibition (TCCSUP)	Percent Inhibition (HCC1937)	Percent Inhibition (RL95)	Percent Inhibition (A704)	Percent Inhibition (NCI-H1770)	Percent Inhibition (BT-474)	Percent Inhibition (J82)	Percent Inhibition (NCI-H28)	Percent Inhibition (BT-549)	Percent Inhibition (HCC1569)	Percent Inhibition (ChaGo-K-1)	Percent Inhibition (HCC1599)	Percent Inhibition (NCI-H2347)	further results
O=C1c2c(O)cc(O)cc2OC(c2ccc(O)c(O)c2)C1O (stereo not drawn) [gl-34]	-9%	1%	1%	-8%	16%	9%	10%	4%	8%	3%	-13%	0%	-15%	3%	-11%	-9%	3%	-3%	42%	2%	Percent Inhibition (T47D): -6%; Percent Inhibition (NCI-H2405): -5%; Percent Inhibition (SW13): -13%; Percent Inhibition (NCI-H524): -31%; Percent Inhibition (MSTO-211-H): -9%; Percent Inhibition (HPAF-II): 6%; Percent Inhibition (A498): 2%; Percent Inhibition (CW-2): 7%; Percent Inhibition (CCF-STTG1): 4%; Percent Inhibition (C3A): -13%; Percent Inhibition (C8166): 7%; Percent Inhibition (NCI-H1623): -7%; Percent Inhibition (M059J): 9%; Percent Inhibition (ZR-75-30): 14%; Percent Inhibition (HEC-1-A): -5%; Percent Inhibition (NCI-H1694): 10%
CC(C)=CCc1c2c(c(O)c3c(=O)c4c(CC=C(C)C)c(O)c(O)cc4oc13)C=CC(C)(C)O2 [bn-4, Bannaxanthone D]	94%	93%	97%	86%	96%	88%	89%	92%	89%	96%	94%	75%	83%	94%	85%	96%	92%	93%	97%	53%	Percent Inhibition (T47D): 80%; Percent Inhibition (NCI-H2405): 92%; Percent Inhibition (SW13): 94%; Percent Inhibition (NCI-H524): 98%; Percent Inhibition (MSTO-211-H): 94%; Percent Inhibition (HPAF-II): 73%; Percent Inhibition (A498): 84%; Percent Inhibition (CW-2): 97%; Percent Inhibition (CCF-STTG1): 86%; Percent Inhibition (C3A): 63%; Percent Inhibition (C8166): 96%; Percent Inhibition (NCI-H1623): 80%; Percent Inhibition (M059J): 90%; Percent Inhibition (ZR-75-30): 81%; Percent Inhibition (HEC-1-A): 76%; Percent Inhibition (NCI-H1694): 97%
CC1(C)C=Cc2c(cc(O)c3c(=O)c4ccc(O)c(O)c4oc23)O1 [gl-18]	78%	96%	91%	92%	94%	96%	90%	85%	85%	94%	66%	89%	92%	88%	77%	86%	81%	91%	92%	84%	Percent Inhibition (T47D): 83%; Percent Inhibition (NCI-H2405): 66%; Percent Inhibition (SW13): 96%; Percent Inhibition (NCI-H524): 96%; Percent Inhibition (MSTO-211-H): 85%; Percent Inhibition (HPAF-II): 82%; Percent Inhibition (A498): 74%; Percent Inhibition (CW-2): 95%; Percent Inhibition (CCF-STTG1): 81%; Percent Inhibition (C3A): 81%; Percent Inhibition (C8166): 92%; Percent Inhibition (NCI-H1623): 77%; Percent Inhibition (M059J): 91%; Percent Inhibition (ZR-75-30): 95%; Percent Inhibition (HEC-1-A): 81%; Percent Inhibition (NCI-H1694): 98%
